For one series, the system named is Anas platyrhynchos. To be noted: acute; oral; unspecified; mortality.
Another series deals with Apis mellifera. The conditions noted are these: acute, mortality.
In another series the test system is Bibionidae. The conditions noted are these: chronic/long-term; duration: 40 days.
The test system of another series is Daphnia magna. The conditions noted are these: chronic/long-term; duration: 21 days.
Another series has as its system Oncorhynchus mykiss. The conditions noted are these: acute; duration: 96 hours; mortality.
For the next series, the system named is Pimephales promelas. The conditions noted are these: chronic/long-term; duration: 32 days.
The test system of the next series is Plant. To be noted: not reported; no effects.
A further series has as its system Pontoscolex corethrurus. The conditions noted are these: for NOEC: chronic/long-term.
Another series deals with Aphidius rhopalosiphi. Briefly: LR50; higher = less toxic. To be noted: not reported; mortality.
The next series has as its system Typhlodromus pyri. Put plainly: LR50; higher = less toxic. To be noted: not reported; mortality.

On to `COc1cc(C)c(C(=O)c2c(OC)ccc(Br)c2C)c(OC)c1OC` [Metrafenone], for which the LD50 in the series on Anas platyrhynchos is above 2020 mg/kg-day; in the series on Apis mellifera (dermal), above 100 µg/piece; in the series on Apis mellifera (oral, unspecified), above 114 µg/piece; in the series on Rattus norvegicus (acute, oral, mortality), above 5000 mg/kg-day. The NOEC with Bibionidae was 1 mg/L; in the series on Colinus virginianus (reproduction developmental), 125 mg/kg-day; in the series on Colinus virginianus (short-term, oral, diet), above 948 mg/kg-day; in the series on Daphnia magna, 0.225 mg/L; with Pimephales promelas it was 0.228 mg/L; in the series on Pontoscolex corethrurus, 10.4 mg/kg. For the same compound, in the series on Pontoscolex corethrurus (reproduction), the NOEC was 3 mg/kg. Also, the LC50 in the series on Oncorhynchus mykiss is above 0.82 mg/L; with Pontoscolex corethrurus (acute, mortality), above 250 mg/kg. The same compound showed an LEL in the series with Plant of 300 g/ha. The NOAEL is 25 mg/kg-day in the series with Rattus norvegicus (chronic, duration: 2 years, oral, histopathology: neoplastic); 811 mg/kg-day in the series on Rattus norvegicus (reproduction developmental); 43 mg/kg-day with Rattus norvegicus (subchronic, duration: 13 weeks, oral, organ weight). For the same compound, the LR50 in the series with Aphidius rhopalosiphi was above 300 g/ha; in the series with Typhlodromus pyri, above 500 g/ha.

Source of the values: EPA's ToxValDB 9.5 (doi:10.2903/j.efsa.2006.58r).
